Results taken from ChEMBL document CHEMBL5046316, “Structure-Based Optimization of a Fragment-like TLR8 Binding Screening Hit to an In Vivo Efficacious TLR7/8 Antagonist” (ACS Med Chem Lett, 2022).

Assays:
Toll-like receptor 7 [1] = target: T1, Toll-like receptor 7 (Mus musculus, UniProt P58681); test: Antagonist activity at mouse TLR7 expressed in human PBMC cells assessed as inhibition of ssRNA stimulated IFNalpha level preincubated for 30 mins followed by stimulation and measured after 20 hrs by AlphaLISA method; format: cell-based
T1 sequence (P58681 whole entry): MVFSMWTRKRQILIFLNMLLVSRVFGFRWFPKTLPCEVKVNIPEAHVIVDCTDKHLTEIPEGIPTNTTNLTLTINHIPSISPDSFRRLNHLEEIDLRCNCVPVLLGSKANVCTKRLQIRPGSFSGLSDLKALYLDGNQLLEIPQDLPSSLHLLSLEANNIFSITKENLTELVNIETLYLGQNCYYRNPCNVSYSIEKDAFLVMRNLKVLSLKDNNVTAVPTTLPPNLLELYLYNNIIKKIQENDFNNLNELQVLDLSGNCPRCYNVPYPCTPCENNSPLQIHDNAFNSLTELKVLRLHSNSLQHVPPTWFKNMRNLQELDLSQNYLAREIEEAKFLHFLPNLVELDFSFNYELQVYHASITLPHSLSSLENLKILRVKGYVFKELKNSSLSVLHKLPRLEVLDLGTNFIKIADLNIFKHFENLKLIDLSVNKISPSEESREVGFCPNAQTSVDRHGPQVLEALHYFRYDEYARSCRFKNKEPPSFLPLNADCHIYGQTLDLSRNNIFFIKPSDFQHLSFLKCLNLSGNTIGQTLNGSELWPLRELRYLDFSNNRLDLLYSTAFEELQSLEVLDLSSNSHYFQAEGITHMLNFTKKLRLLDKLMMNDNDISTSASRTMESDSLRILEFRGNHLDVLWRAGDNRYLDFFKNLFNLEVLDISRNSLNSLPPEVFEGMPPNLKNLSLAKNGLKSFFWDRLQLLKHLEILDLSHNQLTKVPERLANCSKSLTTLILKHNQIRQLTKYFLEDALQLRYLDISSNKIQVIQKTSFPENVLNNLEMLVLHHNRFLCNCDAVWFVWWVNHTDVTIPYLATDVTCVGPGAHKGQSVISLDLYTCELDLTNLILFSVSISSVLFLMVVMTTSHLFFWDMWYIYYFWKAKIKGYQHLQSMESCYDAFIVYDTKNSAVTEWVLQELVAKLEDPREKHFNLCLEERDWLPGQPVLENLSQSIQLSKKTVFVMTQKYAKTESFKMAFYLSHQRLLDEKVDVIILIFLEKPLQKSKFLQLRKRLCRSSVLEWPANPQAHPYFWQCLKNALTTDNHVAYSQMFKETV

[2] = Dissociation constant, pKa of the compound by UV spectrometric titration method; format: physicochemical
[3] = Dose normalized Cmax in Balb/c mouse at 10 mg/kg, po and 1 mg/kg, iv administered as cassette dose measured upto 24 hrs by LC/MS/MS analysis; format: ADME, organism-based; settings: in vivo
[4] = Octanol/water partition coefficient, logD of compound at pH 7.4 measured after 4 hrs by shake flask method; format: physicochemical
Toll-like receptor 4 = Toll-like receptor 4 (Homo sapiens, UniProt O00206); test: Antagonist activity at human TLR4 expressed in human PBMC cells assessed as inhibition of LPS stimulated TNF level preincubated for 30 mins followed by stimulation and measured after 20 hrs by multiplate reader assay; format: cell-based
Toll-like receptor 7 [5] = target: T2, Toll-like receptor 7 (Homo sapiens, UniProt Q9NYK1); test: Antagonist activity at human TLR7 expressed in human whole blood assessed as inhibition of ssRNA stimulated IFNalpha level preincubated for 30 mins followed by stimulation and measured after 20 hrs by AlphaLISA method; format: tissue-based
T2 sequence (Q9NYK1 whole entry): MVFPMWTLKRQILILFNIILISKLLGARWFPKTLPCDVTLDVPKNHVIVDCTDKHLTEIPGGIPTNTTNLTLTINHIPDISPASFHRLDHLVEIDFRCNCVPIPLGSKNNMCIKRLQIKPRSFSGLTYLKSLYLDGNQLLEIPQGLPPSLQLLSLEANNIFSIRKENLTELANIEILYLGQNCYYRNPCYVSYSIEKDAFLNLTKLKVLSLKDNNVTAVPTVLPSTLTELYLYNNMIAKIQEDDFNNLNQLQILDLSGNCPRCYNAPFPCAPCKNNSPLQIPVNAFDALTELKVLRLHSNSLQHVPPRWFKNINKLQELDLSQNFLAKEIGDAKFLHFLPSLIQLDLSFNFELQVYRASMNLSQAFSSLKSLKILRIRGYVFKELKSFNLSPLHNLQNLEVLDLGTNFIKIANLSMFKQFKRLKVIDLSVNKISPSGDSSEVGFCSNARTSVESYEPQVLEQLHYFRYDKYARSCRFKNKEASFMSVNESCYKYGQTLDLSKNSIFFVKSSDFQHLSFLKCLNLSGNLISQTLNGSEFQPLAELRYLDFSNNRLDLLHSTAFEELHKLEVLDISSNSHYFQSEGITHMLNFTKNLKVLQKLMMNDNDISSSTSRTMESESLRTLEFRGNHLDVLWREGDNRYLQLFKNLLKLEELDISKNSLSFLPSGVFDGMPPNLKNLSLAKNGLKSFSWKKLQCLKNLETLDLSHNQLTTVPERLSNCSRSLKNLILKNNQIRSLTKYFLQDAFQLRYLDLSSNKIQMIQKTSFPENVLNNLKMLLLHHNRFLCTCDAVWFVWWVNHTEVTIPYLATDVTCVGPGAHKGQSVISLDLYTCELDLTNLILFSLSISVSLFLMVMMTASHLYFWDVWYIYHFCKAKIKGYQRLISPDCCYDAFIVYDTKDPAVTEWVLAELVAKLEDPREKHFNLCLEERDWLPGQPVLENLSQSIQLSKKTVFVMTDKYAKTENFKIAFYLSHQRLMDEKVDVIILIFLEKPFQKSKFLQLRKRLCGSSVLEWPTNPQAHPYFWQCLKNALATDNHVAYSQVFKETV

Toll-like receptor 7 [6] = target: T1, Toll-like receptor 7; test: Antagonist activity at mouse TLR7 expressed in human whole blood assessed as inhibition of ssRNA stimulated IFNalpha level preincubated for 30 mins followed by stimulation and measured after 20 hrs by AlphaLISA method; format: tissue-based
[7] = Dose normalized AUC in Balb/c mouse at 10 mg/kg, po and 1 mg/kg,iv administered as cassette dose measured upto 24 hrs by LC/MS/MS analysis; format: ADME, organism-based; parameters: dose 10 mg/kg, time <=24; settings: in vivo
[8] = Volume of distribution at steady state in Balb/c mouse at 10 mg/kg, po or 1 mg/kg, iv administered as cassette dose measured upto 24 hrs by LC/MS/MS analysis; format: ADME, organism-based; settings: in vivo, read-out: Vdss

Toll-like receptor 4, sequence (O00206 whole entry): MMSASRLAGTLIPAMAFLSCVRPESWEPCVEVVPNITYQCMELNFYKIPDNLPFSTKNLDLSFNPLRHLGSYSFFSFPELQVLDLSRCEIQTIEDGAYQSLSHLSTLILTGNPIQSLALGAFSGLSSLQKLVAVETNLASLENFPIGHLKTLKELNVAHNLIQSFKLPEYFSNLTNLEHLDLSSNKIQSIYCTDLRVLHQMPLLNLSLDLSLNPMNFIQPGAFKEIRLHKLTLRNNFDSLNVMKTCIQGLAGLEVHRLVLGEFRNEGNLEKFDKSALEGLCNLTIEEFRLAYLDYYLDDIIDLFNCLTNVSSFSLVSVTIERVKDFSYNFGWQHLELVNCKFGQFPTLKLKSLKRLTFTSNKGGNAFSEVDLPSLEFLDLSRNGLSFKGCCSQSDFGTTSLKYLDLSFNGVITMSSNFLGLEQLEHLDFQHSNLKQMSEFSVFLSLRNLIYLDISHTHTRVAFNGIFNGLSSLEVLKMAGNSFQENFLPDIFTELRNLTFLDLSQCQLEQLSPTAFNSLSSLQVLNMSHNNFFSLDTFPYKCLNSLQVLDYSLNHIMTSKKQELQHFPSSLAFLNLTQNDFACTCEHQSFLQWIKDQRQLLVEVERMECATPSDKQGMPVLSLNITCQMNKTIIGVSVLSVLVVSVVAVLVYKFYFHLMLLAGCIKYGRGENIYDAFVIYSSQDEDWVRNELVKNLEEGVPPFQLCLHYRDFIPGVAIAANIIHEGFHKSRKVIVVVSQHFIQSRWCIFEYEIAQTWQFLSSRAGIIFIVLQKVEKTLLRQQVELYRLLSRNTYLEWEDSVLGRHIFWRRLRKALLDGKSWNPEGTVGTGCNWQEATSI

## Cc1cc(-c2cc3[nH]nc(N[C@@H]4CCNC[C@H]4F)c3cc2C2CC2)cc(C)n1
Toll-like receptor 7 [1]
  IC50: Not Active
[2]
  pKa: 6.7
[3]
  Cmax/dose: 79 nM/mg/kg
[4]
  logD at 4 h: 2.7
Toll-like receptor 4
  IC50: > 8 µM
Toll-like receptor 7 [5]
  IC50: 4.9 nM
Toll-like receptor 7 [6]
  IC50: 2 nM
[7]
  AUC: 304 nM·h/mg/kg
[8]
  Vd: 8.4 L/kg
